Experimental data from ChEMBL document CHEMBL5325415, “Falcipains: Biochemistry, target validation and structure-activity relationship studies of inhibitors as antimalarials” (Eur J Med Chem, 2023).
In brackets after ≈: the same amount, converted by molar mass. Blank lines part the entries; values can stand above or below the molecule they belong to. *1 amine or outer side, *2 acyl side, *3 side chain or, on linkers, in order; H or OH if unused. Where a SMILES comes first, the peptide text is derived from it. [ ]: non-standard residue; d: D form. The star is where a group is joined. hPhe = N[C@@H](CCc1ccccc1)C(=O)O; Morpholide = C1CN(*)CCO1; CO = O=C([*:1])[*:2]; CH2F = FC*

Assays:
[1] = Inhibition of Plasmodium vinckei extracts VP-2 using Z-phe-Arg-AMC as substrate pretreated with enzyme for 30 mins followed by substrate addition and measured for 30 mins by spectrofluorometry
Falcipain 2 [2] = target: T1, Falcipain 2 (Plasmodium falciparum, UniProt Q9N6S8); test: Inhibition of Plasmodium falciparum Itg2 trophozite extracts FP-2 using Z-phe-Arg-AMC as substrate pretreated with enzyme for 30 mins followed by substrate addition and measured for 30 mins by spectrofluorometry
T1 sequence (Q9N6S8 whole entry): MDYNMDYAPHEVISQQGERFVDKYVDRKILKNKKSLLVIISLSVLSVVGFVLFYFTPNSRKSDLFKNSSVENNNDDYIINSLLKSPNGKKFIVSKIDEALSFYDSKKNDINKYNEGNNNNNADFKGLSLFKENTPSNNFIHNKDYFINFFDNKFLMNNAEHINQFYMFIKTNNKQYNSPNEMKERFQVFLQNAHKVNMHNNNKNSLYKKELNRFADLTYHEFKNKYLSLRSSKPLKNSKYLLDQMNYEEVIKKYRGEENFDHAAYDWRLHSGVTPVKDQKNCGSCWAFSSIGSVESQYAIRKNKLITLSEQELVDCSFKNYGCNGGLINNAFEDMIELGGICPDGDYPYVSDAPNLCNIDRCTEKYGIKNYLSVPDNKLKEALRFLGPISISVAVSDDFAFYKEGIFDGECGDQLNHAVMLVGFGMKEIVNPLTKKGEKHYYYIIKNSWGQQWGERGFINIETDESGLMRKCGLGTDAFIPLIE

Falcipain 2 [3] = target: T1, Falcipain 2; test: Inhibition of Plasmodium falciparum FP2 using ZFR-AMC as substrate preincubated with enzyme for 10 mins followed by substrate addition and measured for 30 mins by fluorimetric analysis
Plasmodium falciparum [4] = test: Antiplasmodial activity against Plasmodium falciparum 3D7 infected in human erythrocytes assessed as growth inhibition measured after 52 hrs by SYBR green dye based assay; type: functional, organism-based; conditions: 3D7, Erythrocyte
Falcipain 2 [5] = target: T1, Falcipain 2; test: Inhibition of Plasmodium falciparum trophozite extracts FP-2
Falcipain 2 [6] = target: T1, Falcipain 2; test: Inhibition of Plasmodium falciparum FP-2 using Z-Leu-Arg-AMC as substrate pretreated with enzyme for 30 mins followed by substrate addition and measured for 30 mins by spectrofluorometry
[7] = target: T2, Falcipain 2 (Plasmodium falciparum) (UniProt Q9N6S8); test: Inhibition of Plasmodium falciparum FP-2 using Z-Leu-Arg-AMC as substrate at 10 uM pretreated with enzyme for 30 mins followed by substrate addition and measured for 30 mins by spectrofluorometry; conditions: time 60.0 min
T2 sequence (whole entry): T1 sequence (Q9N6S8 whole entry)

Plasmodium falciparum [8] = test: Antimalarial activity against Chloroquine-resistant Plasmodium falciparum RKL9 infected in human erythrocytes assessed as inhibition of parasite growth incubated for 72 hrs by Giemsa staining based analysis; type: functional, organism-based; conditions: RKL9, Erythrocyte
Plasmodium falciparum [9] = test: Antimalarial activity against Chloroquine-sensitive Plasmodium falciparum 3D7 infected in human erythrocytes assessed as inhibition of parasite growth incubated for 72 hrs by Giemsa staining based analysis; type: functional, organism-based; conditions: 3D7, Erythrocyte
Plasmodium falciparum [10] = test: Antimalarial activity against chloroquine-resistant Plasmodium falciparum RKL9 infected in RBC measured after 24 to 30 hrs by microscopic analysis; type: functional, organism-based; conditions: RKL9, Erythrocyte
Falcipain 2 [11] = target: T1, Falcipain 2; test: Inhibition of Plasmodium falciparum FP-2 using Cbz-Phe-Arg-AMC as substrate pretreated with enzyme for 10 mins followed by substrate addition and measured after 10 mins by fluorescence based analysis
Plasmodium falciparum [12] = test: Antimalarial activity against chloroquine-sensitive Plasmodium falciparum 3D7 infected in RBC measured after 24 to 30 hrs by microscopic analysis; type: functional, organism-based; conditions: 3D7, Erythrocyte
[13] = test system: Cathepsin B (relative to Plasmodium falciparum FP-2); test: Selectivity index, ratio of Ki for inhibition of human Cathepsin B to Ki for inhibition of Plasmodium falciparum FP-2; type: toxicity; conditions: read-out: Ratio Ki
[14] = test system: Cathepsin L (relative to Plasmodium falciparum FP-2); test: Selectivity index, ratio of Ki for inhibition of human Cathepsin L to Ki for inhibition of Plasmodium falciparum FP-2; type: toxicity; conditions: read-out: Ratio Ki
Falcipain 2 [15] = target: T1, Falcipain 2; test: Inhibition of Plasmodium falciparum FP-2 using Cbz-Leu-Arg-AMC as substrate and measured for 5 to 10 mins by fluorescence spectrophotometric analysis
Plasmodium falciparum [16] = test: Antiplasmodial activity against Plasmodium falciparum ItG; type: functional, organism-based
Plasmodium falciparum [17] = test: Antiplasmodial activity against Plasmodium falciparum D6; type: functional, organism-based
Plasmodium falciparum [18] = test: Antiplasmodial activity against Plasmodium falciparum Dd2; type: functional, organism-based
Plasmodium falciparum [19] = test: Antiplasmodial activity against Plasmodium falciparum W2; type: functional, organism-based
Plasmodium falciparum [20] = test: Antiplasmodial activity against Plasmodium falciparum HB3; type: functional, organism-based

IC50 [1]: 0.1 µM
IC50 (Falcipain 2 [2]): 0.08 µM
SMILES: O=C(N[C@H](/C=C/S(=O)(=O)c1ccccc1)CCc1ccccc1)[C@H](Cc1ccccc1)NC(=O)N1CCOCC1

IC50 (Falcipain 2 [3]): 4.78 µM
SMILES: O=C(c1cc(Cl)nc2ccccc12)N1CCN(c2ccnc3cc(Cl)ccc23)CC1
EC50 (Plasmodium falciparum [4]): 1.05 µM

SMILES: O=[N+]([O-])c1ccc(-n2cc(COc3ccnc4cc(Cl)ccc34)nn2)cc1
IC50 (Falcipain 2 [3]): 16.2 µM
EC50 (Plasmodium falciparum [4]): 49.9 µM

IC50 (Falcipain 2 [5]): 0.00042 µM
SMILES: CC(C)C[C@H](NC(=O)N1CCOCC1)C(=O)N[C@@H](CCc1ccccc1)C(=O)CF ({Morpholide-CO}-Leu-[hPhe]-CH2F)

SMILES: CCOc1cccc(NC(=S)N/N=C/c2ccc(O[C@H]3O[C@@H]4O[C@@]5(C)CC[C@H]6[C@H](C)CC[C@@H]([C@H]3C)[C@@]46OO5)cc2)c1
IC50 (Falcipain 2 [6]): 0.52 µM

SMILES: COc1ccc(-n2cc(COc3ccnc4cc(Cl)ccc34)nn2)cc1
IC50 (Falcipain 2 [3]): 25.4 µM
EC50 (Plasmodium falciparum [4]): 51.7 µM

IC50 (Falcipain 2 [3]): 2.64 µM
SMILES: CC(=O)Nc1ccc(S(=O)(=O)N2CCN(C(=O)c3cc(-c4ccc(OC(F)(F)F)cc4)nc4ccccc34)CC2)cc1
EC50 (Plasmodium falciparum [4]): 1.43 µM

inhibition [7]: 25.7%
IC50 (Falcipain 2 [6]): 39.4 µM
SMILES: O=C(Cc1ccccc1)N[C@H](Cc1c[nH]c2ccccc12)C(=O)NCc1ccccc1

SMILES: N#C/C(=C\c1cccc(Br)c1)c1nc2ccccc2[nH]1
IC50 (Plasmodium falciparum [8]): 43.4 µM
IC50 (Plasmodium falciparum [9]): 14.4 µM

SMILES: C(=C\c1cn(-c2ccccc2)nc1-c1ccccc1)/c1nnc(-c2ccco2)o1
IC50 (Plasmodium falciparum [10]): 0.863 µg/mL (≈ 2.27 µM)
IC50 (Falcipain 2 [11]): 14 µM
IC50 (Plasmodium falciparum [12]): 0.248 µg/mL (≈ 0.652 µM)

SMILES: C(=C\c1cn(-c2ccccc2)nc1-c1ccccc1)/c1nnc(-c2c[nH]c3ccccc23)o1
IC50 (Plasmodium falciparum [10]): 0.724 µg/mL (≈ 1.69 µM)
IC50 (Falcipain 2 [11]): 7 µM
IC50 (Plasmodium falciparum [12]): 0.245 µg/mL (≈ 0.57 µM)

inhibition [7]: 85.7%
IC50 (Falcipain 2 [6]): 2.95 µM
SMILES: C=CCn1c(SCC(=O)Nc2sc3c(c2C(N)=O)CCC3)nc2scc(-c3ccc(Cl)cc3)c2c1=O

inhibition [7]: 92.7%
IC50 (Falcipain 2 [6]): 1.46 µM
SMILES: NC(=O)c1c(NC(=O)CSc2nc3scc(-c4ccccc4)c3c(=O)n2C2CCCCC2)sc2c1CCC2

SMILES: COC(=O)c1ccc(CNC(=O)[C@@H](Cc2c[nH]c3ccccc23)NC(=O)Oc2ccccc2)cc1
inhibition [7]: 32.9%
IC50 (Falcipain 2 [6]): 13.3 µM

SMILES: N#C/C(=C\c1ccc(O)cc1)c1nc2ccccc2[nH]1
IC50 (Plasmodium falciparum [9]): 47.6 µM

SMILES: Cc1cc(C)cc(NC(=O)N/N=C/c2ccc(C(=O)O[C@@H]3O[C@@H]4O[C@@]5(C)CC[C@H]6[C@H](C)CC[C@@H]([C@H]3C)[C@@]46OO5)cc2)c1
IC50 (Falcipain 2 [6]): 0.57 µM

SMILES: O=C(N[C@H](Cc1c[nH]c2ccccc12)C(=O)NCc1ccccc1)Oc1ccccc1
inhibition [7]: 29.4%
IC50 (Falcipain 2 [6]): 29.7 µM

IC50 (Falcipain 2 [2]): 8 µM
SMILES: Oc1ccc(-c2nccc3ccc(Cc4ccccc4)cc23)cc1

Ki (Falcipain 2 [15]): 1.2 µM
SMILES: N#CCNC(=O)C1(NC(=O)OCc2ccccc2)CCCCC1
selectivity ratio [13]: > 100
selectivity ratio [14]: 22.1

IC50 (Falcipain 2 [3]): 4.2 µM
SMILES: O=C(c1cc(-c2ccccc2)nc2ccccc12)N1CCN(S(=O)(=O)c2ccc(Cl)cc2Cl)CC1
EC50 (Plasmodium falciparum [4]): 20 µM

IC50 (Falcipain 2 [2]): 10 µM
SMILES: COc1ccc(-c2nccc3ccc(Cc4ccccc4)cc23)cc1

IC50 (Plasmodium falciparum [16]): 0.0006 µM
IC50 [1]: 0.2 µM
IC50 (Plasmodium falciparum [17]): 0.00058 µM
IC50 (Falcipain 2 [2]): 0.005 µM
IC50 (Plasmodium falciparum [18]): 0.0004 µM
IC50 (Plasmodium falciparum [19]): 0.00045 µM
IC50 (Plasmodium falciparum [20]): 0.00044 µM
SMILES: CC(C)C[C@H](NC(=O)N1CCN(C)CC1)C(=O)N[C@H](/C=C/S(=O)(=O)c1ccccc1)CCc1ccccc1

IC50 (Falcipain 2 [3]): 7.37 µM
SMILES: CC(=O)Nc1ccc(S(=O)(=O)N2CCN(C(=O)c3cc(Cl)nc4ccccc34)CC2)cc1
EC50 (Plasmodium falciparum [4]): 1.95 µM

SMILES: N#C/C(=C\c1ccc([N+](=O)[O-])cc1)c1nc2ccccc2[nH]1
IC50 (Plasmodium falciparum [9]): 68.9 µM

SMILES: Fc1ccc(-n2cc(COc3ccnc4cc(Cl)ccc34)nn2)cc1F
IC50 (Falcipain 2 [3]): 25.6 µM
EC50 (Plasmodium falciparum [4]): 21.9 µM

SMILES: Cc1ccc(NC(=O)N/N=C/c2ccc(O[C@H]3O[C@@H]4O[C@@]5(C)CC[C@H]6[C@H](C)CC[C@@H]([C@H]3C)[C@@]46OO5)cc2)c(C)c1
IC50 (Falcipain 2 [6]): 1.03 µM

IC50 (Falcipain 2 [3]): 13 µM
SMILES: O=C(c1cc(-c2ccccc2)nc2ccccc12)N1CCN(c2cc(=O)[nH]c3ccccc23)CC1
EC50 (Plasmodium falciparum [4]): 20.2 µM
